# Results taken from ChEMBL document CHEMBL3045858, “Weed control and sesame (Sesamum indicum L.) response to preplant incorporated herbicides and method of incorporation” (Crop Prot, 2007).
# What was measured:
# Sesamum indicum [1] = assay: Phytotoxicity against Sesamum indicum (sesame) plant assessed as yield at 0.42 kg/ha applied using mixing wheel cultivator (reference value: 333 kg/ha); format: organism-based; details: in vivo, other
# Amaranthus tuberculatus [2] = assay: Herbicidal activity against Amaranthus tuberculatus at 1.68 kg/ha applied using mixing wheel cultivator; format: functional
# Urochloa platyphylla [3] = assay: Herbicidal activity against Urochloa platyphylla at 1.68 kg/ha applied using mixing wheel cultivator; format: functional
# Amaranthus tuberculatus [4] = assay: Herbicidal activity against Amaranthus tuberculatus at 0.84 kg/ha applied using mixing wheel cultivator; format: functional
# Sesamum indicum [5] = assay: Phytotoxicity against Sesamum indicum (sesame) plant assessed as sesame stand at 1.68 kg/ha applied using mixing wheel cultivator relative to control; format: organism-based; details: in vivo, other
# Sesamum indicum [6] = assay: Phytotoxicity against Sesamum indicum (sesame) plant assessed as sesame stand at 0.42 kg/ha applied using mixing wheel cultivator relative to control; format: organism-based; details: in vivo, other
# Urochloa platyphylla [7] = assay: Herbicidal activity against Urochloa platyphylla at 0.42 kg/ha applied using mixing wheel cultivator; format: functional
# Sesamum indicum [8] = assay: Phytotoxicity against Sesamum indicum (sesame) plant assessed as yield at 1.68 kg/ha applied using mixing wheel cultivator (reference value: 333 kg/ha); format: organism-based; details: in vivo, other
# Urochloa platyphylla [9] = assay: Herbicidal activity against Urochloa platyphylla at 0.84 kg/ha applied using mixing wheel cultivator; format: functional
# Sesamum indicum [10] = assay: Phytotoxicity against Sesamum indicum (sesame) plant assessed as stunt in growth at 1.68 kg/ha applied using mixing wheel cultivator (reference value: 0%); format: organism-based; details: in vivo, other
# Sesamum indicum [11] = assay: Phytotoxicity against Sesamum indicum (sesame) plant assessed as sesame stand at 0.84 kg/ha applied using mixing wheel cultivator relative to control; format: organism-based; details: in vivo, other
# Sesamum indicum [12] = assay: Phytotoxicity against Sesamum indicum (sesame) plant assessed as stunt in growth at 0.42 kg/ha applied using mixing wheel cultivator (reference value: 0%); format: organism-based; details: in vivo, other
# Sesamum indicum [13] = assay: Phytotoxicity against Sesamum indicum (sesame) plant assessed as stunt in growth at 0.84 kg/ha applied using mixing wheel cultivator (reference value: 0%); format: organism-based; details: in vivo, other
# Amaranthus tuberculatus [14] = assay: Herbicidal activity against Amaranthus tuberculatus at 0.42 kg/ha applied using mixing wheel cultivator; format: functional
# Sesamum indicum [15] = assay: Phytotoxicity against Sesamum indicum (sesame) plant assessed as yield at 0.84 kg/ha applied using mixing wheel cultivator (reference value: 333 kg/ha); format: organism-based; details: in vivo, other
# Urochloa platyphylla [16] = assay: Herbicidal activity against Urochloa platyphylla at 1.4 kg/ha formulated as prowl H2O applied using mixing wheel cultivator; format: functional
# Amaranthus tuberculatus [17] = assay: Herbicidal activity against Amaranthus tuberculatus at 1.12 kg/ha formulated as prowl H2O applied using mixing wheel cultivator; format: functional
# Sesamum indicum [18] = assay: Phytotoxicity against Sesamum indicum (sesame) plant assessed as sesame stand at 1.12 kg/ha formulated as prowl EC applied using mixing wheel cultivator relative to control; format: organism-based; details: in vivo, other
# Sesamum indicum [19] = assay: Phytotoxicity against Sesamum indicum (sesame) plant assessed as yield at 1.4 kg/ha formulated as prowl H2O applied using mixing wheel cultivator (reference value: 333 kg/ha); format: organism-based; details: in vivo, other
# Sesamum indicum [20] = assay: Phytotoxicity against Sesamum indicum (sesame) plant assessed as yield at 1.12 kg/ha formulated as prowl H2O applied using mixing wheel cultivator (reference value: 333 kg/ha); format: organism-based; details: in vivo, other
# Sesamum indicum [21] = assay: Phytotoxicity against Sesamum indicum (sesame) plant assessed as stunt in growth at 0.56 kg/ha formulated as prowl EC applied using mixing wheel cultivator (reference value: 0%); format: organism-based; details: in vivo, other
# Urochloa platyphylla [22] = assay: Herbicidal activity against Urochloa platyphylla at 2.24 kg/ha formulated as prowl EC applied using mixing wheel cultivator; format: functional
# Urochloa platyphylla [23] = assay: Herbicidal activity against Urochloa platyphylla at 1.12 kg/ha formulated as prowl H2O applied using mixing wheel cultivator; format: functional
# Amaranthus tuberculatus [24] = assay: Herbicidal activity against Amaranthus tuberculatus at 2.24 kg/ha formulated as prowl EC applied using mixing wheel cultivator; format: functional
# Sesamum indicum [25] = assay: Phytotoxicity against Sesamum indicum (sesame) plant assessed as stunt in growth at 1.12 kg/ha formulated as prowl H2O applied using mixing wheel cultivator (reference value: 0%); format: organism-based; details: in vivo, other
# Sesamum indicum [26] = assay: Phytotoxicity against Sesamum indicum (sesame) plant assessed as yield at 2.24 kg/ha formulated as prowl EC applied using mixing wheel cultivator (reference value: 333 kg/ha); format: organism-based; details: in vivo, other
# Sesamum indicum [27] = assay: Phytotoxicity against Sesamum indicum (sesame) plant assessed as stunt in growth at 1.4 kg/ha formulated as prowl H2O applied using mixing wheel cultivator (reference value: 0%); format: organism-based; details: in vivo, other
# Sesamum indicum [28] = assay: Phytotoxicity against Sesamum indicum (sesame) plant assessed as stunt in growth at 2.24 kg/ha formulated as prowl EC applied using mixing wheel cultivator (reference value: 0%); format: organism-based; details: in vivo, other
# Sesamum indicum [29] = assay: Phytotoxicity against Sesamum indicum (sesame) plant assessed as sesame stand at 1.12 kg/ha formulated as prowl H2O applied using mixing wheel cultivator relative to control; format: organism-based; details: in vivo, other
# Sesamum indicum [30] = assay: Phytotoxicity against Sesamum indicum (sesame) plant assessed as Sesame stand at 1.4 kg/ha formulated as prowl H2O applied using mixing wheel cultivator relative to control; format: organism-based; details: in vivo, other
# Amaranthus tuberculatus [31] = assay: Herbicidal activity against Amaranthus tuberculatus at 0.56 kg/ha formulated as prowl EC applied using mixing wheel cultivator; format: functional
# Sesamum indicum [32] = assay: Phytotoxicity against Sesamum indicum (sesame) plant assessed as sesame stand at 0.84 kg/ha formulated as prowl H2O applied using mixing wheel cultivator relative to control; format: organism-based; details: in vivo, other
# Amaranthus tuberculatus [33] = assay: Herbicidal activity against Amaranthus tuberculatus at 1.12 kg/ha formulated as prowl EC applied using mixing wheel cultivator; format: functional
# Sesamum indicum [34] = assay: Phytotoxicity against Sesamum indicum (sesame) plant assessed as stunt in growth at 0.84 kg/ha formulated as prowl H2O applied using mixing wheel cultivator (reference value: 0%); format: organism-based; details: in vivo, other
# Sesamum indicum [35] = assay: Phytotoxicity against Sesamum indicum (sesame) plant assessed as yield at 0.84 kg/ha formulated as prowl H2O applied using mixing wheel cultivator (reference value: 333 kg/ha); format: organism-based; details: in vivo, other
# Sesamum indicum [36] = assay: Phytotoxicity against Sesamum indicum (sesame) plant assessed as sesame stand at 0.56 kg/ha formulated as prowl EC applied using mixing wheel cultivator relative to control; format: organism-based; details: in vivo, other
# Urochloa platyphylla [37] = assay: Herbicidal activity against Urochloa platyphylla at 0.56 kg/ha formulated as prowl EC applied using mixing wheel cultivator; format: functional
# Sesamum indicum [38] = assay: Phytotoxicity against Sesamum indicum (sesame) plant assessed as stunt in growth at 1.12 kg/ha formulated as prowl EC applied using mixing wheel cultivator (reference value: 0%); format: organism-based; details: in vivo, other
# Urochloa platyphylla [39] = assay: Herbicidal activity against Urochloa platyphylla at 1.12 kg/ha formulated as prowl EC applied using mixing wheel cultivator; format: functional
# Sesamum indicum [40] = assay: Phytotoxicity against Sesamum indicum (sesame) plant assessed as yield at 1.12 kg/ha formulated as prowl EC applied using mixing wheel cultivator (reference value: 333 kg/ha); format: organism-based; details: in vivo, other
# Urochloa platyphylla [41] = assay: Herbicidal activity against Urochloa platyphylla at 0.84 kg/ha formulated as prowl H2O applied using mixing wheel cultivator; format: functional
# Amaranthus tuberculatus [42] = assay: Herbicidal activity against Amaranthus tuberculatus at 1.4 kg/ha formulated as prowl H2O applied using mixing wheel cultivator; format: functional
# Sesamum indicum [43] = assay: Phytotoxicity against Sesamum indicum (sesame) plant assessed as yield at 0.56 kg/ha formulated as prowl EC applied using mixing wheel cultivator (reference value: 333 kg/ha); format: organism-based; details: in vivo, other
# Amaranthus tuberculatus [44] = assay: Herbicidal activity against Amaranthus tuberculatus at 0.84 kg/ha formulated as prowl H2O applied using mixing wheel cultivator; format: functional
# Sesamum indicum [45] = assay: Phytotoxicity against Sesamum indicum (sesame) plant assessed as sesame stand at 2.24 kg/ha formulated as prowl EC applied using mixing wheel cultivator relative to control; format: organism-based; details: in vivo
structure (smiles),measurement,setting,value
C=C(C)CN(CC)c1c([N+](=O)[O-])cc(C(F)(F)F)cc1[N+](=O)[O-] [ETHALFLURALIN],Crop_yield,Sesamum indicum [1],428 kg/ha
same,Activity,Amaranthus tuberculatus [2],93%
same,Activity,Urochloa platyphylla [3],97%
same,Activity,Amaranthus tuberculatus [4],92%
same,Activity,Sesamum indicum [5],52%
same,Activity,Sesamum indicum [6],95%
same,Activity,Urochloa platyphylla [7],69%
same,Crop_yield,Sesamum indicum [8],143 kg/ha
same,Activity,Urochloa platyphylla [9],95%
same,Activity,Sesamum indicum [10],4%
same,Activity,Sesamum indicum [11],78%
same,Activity,Sesamum indicum [12],4%
same,Activity,Sesamum indicum [13],2%
same,Activity,Amaranthus tuberculatus [14],82%
same,Crop_yield,Sesamum indicum [15],527 kg/ha
CCC(CC)Nc1c([N+](=O)[O-])cc(C)c(C)c1[N+](=O)[O-] [PENDIMETHALIN],Activity,Urochloa platyphylla [16],73%
same,Activity,Amaranthus tuberculatus [17],84%
same,Activity,Sesamum indicum [18],55%
same,Crop_yield,Sesamum indicum [19],240 kg/ha
same,Crop_yield,Sesamum indicum [20],288 kg/ha
same,Activity,Sesamum indicum [21],3%
same,Activity,Urochloa platyphylla [22],85%
same,Activity,Urochloa platyphylla [23],80%
same,Activity,Amaranthus tuberculatus [24],90%
same,Activity,Sesamum indicum [25],4%
same,Crop_yield,Sesamum indicum [26],233 kg/ha
same,Activity,Sesamum indicum [27],14%
same,Activity,Sesamum indicum [28],16%
same,Activity,Sesamum indicum [29],53%
same,Activity,Sesamum indicum [30],38%
same,Activity,Amaranthus tuberculatus [31],85%
same,Activity,Sesamum indicum [32],90%
same,Activity,Amaranthus tuberculatus [33],74%
same,Activity,Sesamum indicum [34],0%
same,Crop_yield,Sesamum indicum [35],534 kg/ha
same,Activity,Sesamum indicum [36],80%
same,Activity,Urochloa platyphylla [37],63%
same,Activity,Sesamum indicum [38],3%
same,Activity,Urochloa platyphylla [39],83%
same,Crop_yield,Sesamum indicum [40],382 kg/ha
same,Activity,Urochloa platyphylla [41],71%
same,Activity,Amaranthus tuberculatus [42],83%
same,Crop_yield,Sesamum indicum [43],367 kg/ha
same,Activity,Amaranthus tuberculatus [44],96%
same,Activity,Sesamum indicum [45],27%
CCCN(CCC)c1c([N+](=O)[O-])cc(C(F)(F)F)cc1[N+](=O)[O-] [TRIFLURALIN],Crop_yield,Sesamum indicum [1],587 kg/ha
same,Activity,Amaranthus tuberculatus [2],92%
same,Activity,Urochloa platyphylla [3],96%
same,Activity,Amaranthus tuberculatus [4],85%
same,Activity,Sesamum indicum [5],67%
same,Activity,Sesamum indicum [6],99%
same,Activity,Urochloa platyphylla [7],86%
same,Crop_yield,Sesamum indicum [8],406 kg/ha
same,Activity,Urochloa platyphylla [9],91%
same,Activity,Sesamum indicum [10],4%
same,Activity,Sesamum indicum [11],76%
same,Activity,Sesamum indicum [12],0%
same,Activity,Sesamum indicum [13],2%
same,Activity,Amaranthus tuberculatus [14],90%
same,Crop_yield,Sesamum indicum [15],342 kg/ha
